Consider 8 molecules from ChEMBL document CHEMBL5614447, “Innovative Drug Discovery: Targeting Cancer, Neurological Disorders, and Obesity” (ACS Med Chem Lett, 2024).

The experiment deals with Protein cereblon/DNA damage-binding protein 1 (Homo sapiens) (UniProt Q96SW2+Q16531). Nature of the experiment: Displacement of AlexaFlour-conjugated ligand from CRBN/DDB1 complex (unknown origin) incubated in 0.05% PA/0.1% BSA at room temperature for 60 mins by fluorescence polarization assay. It is filed as protein assay.
Sequence of Protein cereblon/DNA damage-binding protein 1 (Homo sapiens) (Q16531 2-1140 partner limits assumed): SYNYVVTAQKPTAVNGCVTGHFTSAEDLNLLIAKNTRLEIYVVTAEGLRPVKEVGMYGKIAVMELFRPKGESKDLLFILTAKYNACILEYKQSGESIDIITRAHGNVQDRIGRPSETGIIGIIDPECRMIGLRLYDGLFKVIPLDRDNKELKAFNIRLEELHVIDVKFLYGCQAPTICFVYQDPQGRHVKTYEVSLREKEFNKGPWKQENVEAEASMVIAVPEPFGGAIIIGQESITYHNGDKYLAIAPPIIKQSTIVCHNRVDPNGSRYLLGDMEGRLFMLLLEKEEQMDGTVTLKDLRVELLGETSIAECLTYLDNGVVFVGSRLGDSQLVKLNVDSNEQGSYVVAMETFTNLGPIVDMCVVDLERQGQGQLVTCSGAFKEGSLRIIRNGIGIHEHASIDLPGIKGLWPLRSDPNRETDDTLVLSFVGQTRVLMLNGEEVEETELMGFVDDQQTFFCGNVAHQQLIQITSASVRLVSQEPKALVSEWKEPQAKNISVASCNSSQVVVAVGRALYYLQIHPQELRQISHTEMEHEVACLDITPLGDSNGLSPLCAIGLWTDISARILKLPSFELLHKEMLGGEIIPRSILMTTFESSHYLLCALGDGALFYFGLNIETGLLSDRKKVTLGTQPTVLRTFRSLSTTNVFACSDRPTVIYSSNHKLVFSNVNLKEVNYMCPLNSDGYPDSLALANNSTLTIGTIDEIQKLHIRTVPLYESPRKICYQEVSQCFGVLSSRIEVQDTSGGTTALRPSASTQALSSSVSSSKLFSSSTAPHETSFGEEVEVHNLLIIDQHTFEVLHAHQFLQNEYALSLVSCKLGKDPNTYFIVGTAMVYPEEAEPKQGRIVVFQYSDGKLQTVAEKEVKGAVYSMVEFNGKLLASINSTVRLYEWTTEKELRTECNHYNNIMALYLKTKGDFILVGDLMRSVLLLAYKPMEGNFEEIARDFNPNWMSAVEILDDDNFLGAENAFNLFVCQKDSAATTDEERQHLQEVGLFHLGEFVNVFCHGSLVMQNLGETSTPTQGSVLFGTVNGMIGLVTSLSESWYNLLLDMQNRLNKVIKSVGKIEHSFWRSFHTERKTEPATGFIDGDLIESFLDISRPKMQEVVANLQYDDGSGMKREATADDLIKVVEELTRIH
Sequence of Protein cereblon/DNA damage-binding protein 1 (Homo sapiens) (Q96SW2 whole entry): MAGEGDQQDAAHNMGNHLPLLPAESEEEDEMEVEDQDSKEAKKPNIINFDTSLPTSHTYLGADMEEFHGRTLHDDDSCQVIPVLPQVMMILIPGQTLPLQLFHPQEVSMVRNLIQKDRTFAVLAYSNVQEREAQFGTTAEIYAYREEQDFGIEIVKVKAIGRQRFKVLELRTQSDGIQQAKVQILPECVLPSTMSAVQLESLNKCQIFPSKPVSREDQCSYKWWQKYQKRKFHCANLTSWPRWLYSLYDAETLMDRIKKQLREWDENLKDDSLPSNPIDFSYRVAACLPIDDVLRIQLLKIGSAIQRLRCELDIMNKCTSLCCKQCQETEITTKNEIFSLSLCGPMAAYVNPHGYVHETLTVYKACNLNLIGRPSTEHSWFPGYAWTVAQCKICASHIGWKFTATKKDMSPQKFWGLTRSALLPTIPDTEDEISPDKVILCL
Turning to `CN(C(=O)OC(C)(C)C)C1CCN(c2cccc3c2OCCN3[C@H]2CCC(=O)NC2=O)CC1`, the binding affinity (displacement) was below 100 µM.
Regarding `O=C1CCC(N2CCOc3c([C@@H]4CCNC4)cccc32)C(=O)N1` (stereo partly drawn), the binding affinity (displacement) is below 100 µM.
The molecule `CNC1CCN(c2cccc3c2O[C@H](C)CN3C2CCC(=O)NC2=O)CC1` (stereo partly drawn) gave a binding affinity (displacement) below 100 µM.
Molecule `O=C1CCC(N2CCOc3c([C@@H]4CCCNC4)cccc32)C(=O)N1` (stereo partly drawn) returned a binding affinity (displacement) below 100 µM.
The result for `O=C1CCC(N2CCOc3c(N4CCNCC4)cccc32)C(=O)N1` (stereo not drawn) reads below 100 µM; that for `CN(C(=O)OC(C)(C)C)C1CCN(c2cccc3c2OCCN3[C@@H]2CCC(=O)NC2=O)CC1`, below 1 µM; that for `CNC1CCN(c2cccc3c2O[C@@H](C)CN3C2CCC(=O)NC2=O)CC1` (stereo partly drawn), below 100 µM.
For the molecule `O=C1CCC(N2CCOc3c([C@H]4CCNC4)cccc32)C(=O)N1` (stereo partly drawn), the binding affinity (displacement) is below 100 µM.
